Measurements reported in publication PMC13136073, “Discovery of 4‐Quinazolinone‐Containing Phenylalanine Derivatives as Potent, Resistant‐Tolerant HIV Capsid Inhibitors” (MedComm, 2026).

Experiment: Stability in human liver microsomes
Assay type: in vitro ADME
Settings: HLM, scaled

CLint(liver): 200.0 mL/min/kg
Structure (SMILES): O=C(O)Cc1ccccc1Nc1c(Cl)cccc1Cl [Diclofenac, diclofenac]
